Assay results from PubChem BioAssay AID330 (DTP/NCI, 2004).
“And” between values parts separate entries of the source, which are not always exact repeats. Equal entries are not always repeated. Toxic doses and inconclusive results are not listed. The calls were made as follows: active = survival T/C of 150% or more; inactive = T/C below 125% in these data. Peptide text beside a SMILES is read from it. * marks the point of attachment. Bz = O=C(c1ccccc1)*; Bn = c1ccc(C*)cc1; βAla = NCCC(=O)O

Test system: P388 leukemia ip, CD2F1 mice, survival T/C
Experiment: NCI In Vivo Anticancer Drug Screen. Data for tumor model P388 Leukemia (intraperitoneal) in CD2F1 (CDF1) mice
Details: endpoint: median survival time, higher = longer survival
Method in brief: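 Mice carrying the transplanted tumor received test compound or vehicle. Survival was recorded in each group, and the value is the treated-group measurement divided by that of the vehicle-treated control group.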

[1] = dose: 3.13 mg/kg/injection, schedule: Q01DX009 (ip), vehicle: water
[2] = dose: 6.25 mg/kg/injection, schedule: Q01DX009 (ip), vehicle: water
[3] = dose: 12.5 mg/kg/injection, schedule: Q01DX009 (ip), vehicle: water
[4] = dose: 25.0 mg/kg/injection, schedule: Q01DX009 (ip), vehicle: water
[5] = dose: 50.0 mg/kg/injection, schedule: Q01DX009 (ip), vehicle: water
[6] = dose: 25.0 mg/kg/injection, schedule: Q01DX009 (ip), vehicle: Klucel (hydroxypropylcellulose) (HPC)
[7] = dose: 50.0 mg/kg/injection, schedule: Q01DX009 (ip), vehicle: Klucel (hydroxypropylcellulose) (HPC)
[8] = dose: 100.0 mg/kg/injection, schedule: Q01DX009 (ip), vehicle: Klucel (hydroxypropylcellulose) (HPC)
[9] = dose: 50.0 mg/kg/injection, schedule: Q01DX005 (ip), vehicle: Klucel (hydroxypropylcellulose) (HPC)
[10] = dose: 100.0 mg/kg/injection, schedule: Q01DX005 (ip), vehicle: Klucel (hydroxypropylcellulose) (HPC)
[11] = dose: 200.0 mg/kg/injection, schedule: Q01DX005 (ip), vehicle: Klucel (hydroxypropylcellulose) (HPC)
[12] = dose: 60.0 mg/kg/injection, schedule: Q01DX005 (ip), vehicle: Klucel (hydroxypropylcellulose) (HPC)
[13] = dose: 120.0 mg/kg/injection, schedule: Q01DX005 (ip), vehicle: Klucel (hydroxypropylcellulose) (HPC)
[14] = dose: 240.0 mg/kg/injection, schedule: Q01DX005 (ip), vehicle: Klucel (hydroxypropylcellulose) (HPC)
[15] = dose: 60.0 mg/kg/injection, schedule: Q01DX005 (ip), vehicle: saline with Tween-80
[16] = dose: 120.0 mg/kg/injection, schedule: Q01DX005 (ip), vehicle: saline with Tween-80
[17] = dose: 25.0 mg/kg/injection, schedule: Q01DX009 (ip), vehicle: distilled water + Tween-80
[18] = dose: 50.0 mg/kg/injection, schedule: Q01DX009 (ip), vehicle: distilled water + Tween-80
[19] = dose: 100.0 mg/kg/injection, schedule: Q01DX009 (ip), vehicle: distilled water + Tween-80
[20] = dose: 100.0 mg/kg/injection, schedule: Q04DX003 (ip), vehicle: saline
[21] = dose: 200.0 mg/kg/injection, schedule: Q04DX003 (ip), vehicle: saline
[22] = dose: 400.0 mg/kg/injection, schedule: Q04DX003 (ip), vehicle: saline

Measured: T/C

OCC1OC(n2cc(I)c3c2ncn2nnnc32)C(O)C1O (stereo not drawn)
inactive: [1] 99 % of control | [2] 100 % of control | [3] 97 % of control | [4] 97 % of control | [5] 89 % of control

C=CCn1c(=O)n(CC)c(=O)c2[nH]c(C(F)(F)F)nc21
inactive: [6] 99 % of control | [7] 102 % of control | [8] 112 % of control

O=C1C=CC(=O)C(Sc2cccc3ccccc23)=C1
inactive: dose: 6.25 mg/kg/injection, schedule: Q01DX005 (ip), vehicle: Klucel (hydroxypropylcellulose) (HPC) 96 % of control | dose: 12.5 mg/kg/injection, schedule: Q01DX005 (ip), vehicle: Klucel (hydroxypropylcellulose) (HPC) 102 % of control and 97 % of control | dose: 25.0 mg/kg/injection, schedule: Q01DX005 (ip), vehicle: Klucel (hydroxypropylcellulose) (HPC) 93 % of control | [9] 98 % of control and 107 % of control | [10] 107 % of control | [11] 104 % of control

Cc1cc(Oc2cnc(=O)[nH]c2)cs1
inactive: [12] 100 % of control | [13] 94 % of control | [14] 94 % of control

S=c1[nH]ccc2ccccc12
inactive: [7] 100 % of control | [8] 101 % of control | dose: 200.0 mg/kg/injection, schedule: Q01DX009 (ip), vehicle: Klucel (hydroxypropylcellulose) (HPC) 119 % of control | dose: 400.0 mg/kg/injection, schedule: Q01DX009 (ip), vehicle: Klucel (hydroxypropylcellulose) (HPC) 105 % of control

NCP1(=O)CNC(=O)NC1
inactive: dose: 50.0 mg/kg/injection, schedule: Q01DX005 (ip), vehicle: saline 116 % of control | dose: 100.0 mg/kg/injection, schedule: Q01DX005 (ip), vehicle: saline 103 % of control | dose: 200.0 mg/kg/injection, schedule: Q01DX005 (ip), vehicle: saline 113 % of control

COc1cc(C2c3cc4c(cc3OC(=O)C2C(C)=O)OCO4)cc(OC)c1OC (stereo not drawn)
inactive: dose: 30.0 mg/kg/injection, schedule: Q01DX005 (ip), vehicle: saline with Tween-80 89 % of control and 90 % of control | [15] 89 % of control (2×) and 93 % of control | [16] 107 % of control and 110 % of control

NC(=O)N/N=C1\C(=O)N(c2ccc(S(N)(=O)=O)cc2)C(=O)C1C(=O)Nc1ccc(S(N)(=O)=O)cc1 (stereo not drawn)
inactive: dose: 60.0 mg/kg/injection, schedule: Q01DX005 (ip), vehicle: saline 106 % of control | dose: 120.0 mg/kg/injection, schedule: Q01DX005 (ip), vehicle: saline 102 % of control | dose: 240.0 mg/kg/injection, schedule: Q01DX005 (ip), vehicle: saline 102 % of control

CCCCCCC/C=C/C(=O)OC1C(OC2C(OC(CCCCCCC)CC(=O)OC(CCCCCCC)CC(=O)O)OC(C)C(O)C2O)OC(C)C(O)C1O (stereo not drawn)
inactive: dose: 12.5 mg/kg/injection, schedule: Q01DX009 (ip), vehicle: Klucel (hydroxypropylcellulose) (HPC) 102 % of control and 89 % of control | [6] 98 % of control and 120 % of control and 87 % of control | [7] 120 % of control and 95 % of control (2×) | [8] 116 % of control

Nc1nc(=S)c2[nH]c(N=Nc3ccc(S(=O)(=O)O)cc3)nc2[nH]1
inactive: dose: 6.25 mg/kg/injection, schedule: Q04DX003 (ip), vehicle: saline 123 % of control

COc1ccc(C2OC3=C(Nc4ccccc4N3)C2=O)cc1 (stereo not drawn)
inactive: [12] 97 % of control | [13] 97 % of control | [14] 98 % of control

CCOC(=O)c1ccc(NC(=S)Nc2nccs2)cc1
inactive: [17] 99 % of control | [18] 101 % of control | [19] 95 % of control | dose: 200.0 mg/kg/injection, schedule: Q01DX009 (ip), vehicle: distilled water + Tween-80 92 % of control | dose: 400.0 mg/kg/injection, schedule: Q01DX009 (ip), vehicle: distilled water + Tween-80 92 % of control

CCOC(=O)NC(NC(=O)OCC)c1cccc(F)c1
inactive: [20] 99 % of control | [21] 99 % of control | [22] 93 % of control

C=C1CC2(CC3C(CC2C)C3(C)C)OC1=O (stereo not drawn)
inactive: dose: 100.0 mg/kg/injection, schedule: Q01DX001 (ip), vehicle: saline 101 % of control | dose: 200.0 mg/kg/injection, schedule: Q01DX001 (ip), vehicle: saline 101 % of control | dose: 400.0 mg/kg/injection, schedule: Q01DX001 (ip), vehicle: saline 104 % of control

CC(C)c1c2ccccc2nn1-c1ccccc1
inactive: dose: 100.0 mg/kg/injection, schedule: Q04DX003 (ip), vehicle: saline with Tween-80 97 % of control | dose: 200.0 mg/kg/injection, schedule: Q04DX003 (ip), vehicle: saline with Tween-80 89 % of control | dose: 400.0 mg/kg/injection, schedule: Q04DX003 (ip), vehicle: saline with Tween-80 91 % of control

CC1CCOC(C)O1 (stereo not drawn)
inactive: [20] 100 % of control | [21] 104 % of control | [22] 101 % of control

OC(CCl)Cn1nc2ccccc2n1 (stereo not drawn)
inactive: [9] 96 % of control | [10] 105 % of control | dose: 100.0 mg/kg/injection, schedule: Q04DX003 (ip), vehicle: Klucel (hydroxypropylcellulose) (HPC) 99 % of control | [11] 103 % of control | dose: 200.0 mg/kg/injection, schedule: Q04DX003 (ip), vehicle: Klucel (hydroxypropylcellulose) (HPC) 99 % of control | dose: 400.0 mg/kg/injection, schedule: Q04DX003 (ip), vehicle: Klucel (hydroxypropylcellulose) (HPC) 93 % of control

CCOC(=O)c1c[nH]c2c(ccc3cccnc32)c1=O
inactive: dose: 15.0 mg/kg/injection, schedule: Q01DX005 (ip), vehicle: Klucel (hydroxypropylcellulose) (HPC) 99 % of control | dose: 30.0 mg/kg/injection, schedule: Q01DX005 (ip), vehicle: Klucel (hydroxypropylcellulose) (HPC) 99 % of control | dose: 50.0 mg/kg/injection, schedule: Q01DX009 (ip), vehicle: saline 99 % of control | [12] 99 % of control and 97 % of control | dose: 100.0 mg/kg/injection, schedule: Q01DX009 (ip), vehicle: saline 117 % of control | dose: 200.0 mg/kg/injection, schedule: Q01DX009 (ip), vehicle: saline 99 % of control

COC(=O)C(CSCc1ccccc1)NC(=O)C(CSCc1ccccc1)NC(=O)CCNC(=O)c1ccccc1 (stereo not drawn) ({Bz-βAla}-Cys(Bn)-Cys(Bn)-OMe; configuration not given here)
inactive: dose: 12.5 mg/kg/injection, schedule: Q01DX009 (ip), vehicle: distilled water + Tween-80 92 % of control | [17] 89 % of control | [18] 90 % of control | [19] 94 % of control

COSc1cccc(C(F)(F)F)c1
inactive: [20] 100 % of control | [21] 100 % of control | [22] 97 % of control

COC(CNCC(OC)OC)OC
inactive: [1] 96 % of control | [2] 102 % of control | [3] 95 % of control | [4] 102 % of control | [5] 93 % of control | dose: 100.0 mg/kg/injection, schedule: Q01DX009 (ip), vehicle: water 104 % of control

NNC(=O)C1C2c3ccccc3C(c3ccccc32)C1C(=O)NN (stereo not drawn)
inactive: [15] 99 % of control | [16] 99 % of control | dose: 240.0 mg/kg/injection, schedule: Q01DX005 (ip), vehicle: saline with Tween-80 96 % of control
